Results taken from ChEMBL document CHEMBL1154909, “Dammarane-type glycosides from Gynostemma pentaphyllum and their effects on IL-4-induced eotaxin expression in human bronchial epithelial cells” (J Nat Prod, 2010).

Assays:
[1] = Cytotoxicity against human BEAS2B cells at 10 uM after 48 hrs by MTT assay; assay type: cell-based; settings: beas-2b
[2] = Cytotoxicity against human BEAS2B cells at 10 uM after 48 hrs by MTT assay in the presence of IL4; assay type: cell-based; settings: beas-2b
[3] = tested on: BEAS-2B; test: Antiinflammatory activity in human BEAS2B cells assessed as inhibition of IL4-induced eotaxin production after 48 hrs by ELISA pretreated for 2 hrs before IL4 challenge; assay type: functional, cell-based
[4] = Antiinflammatory activity in human BEAS2B cells assessed as inhibition of IL4 and TNF-alpha-induced eotaxin production after 48 hrs by ELISA pretreated for 2 hrs before IL4 and TNFalpha challenge (Rvb= 450+/-38.4 pg/mL); assay type: functional, BEAS-2B
[5] = Antiinflammatory activity in human BEAS2B cells assessed as inhibition of IL4-induced eotaxin production at 10 uM after 48 hrs by ELISA pretreated for 2 hrs before IL4 challenge (reference value: 58.5+/-4.7 ng/mL); assay type: functional, BEAS-2B
[6] = Antiinflammatory activity in human BEAS2B cells assessed as inhibition of IL4 and TNF-alpha-induced eotaxin production at 10 uM after 48 hrs by ELISA pretreated for 2 hrs before IL4 and TNFalpha challenge; assay type: functional, BEAS-2B

Compound	Activity [1]	Activity [2]	Activity [3]	Activity [4] [pg/mL]	Activity [5] [pg/mL]	Activity [6] [pg/mL]
CC(C)=CCC[C@](C)(O[C@@H]1O[C@H](CO[C@@H]2OC[C@@H](O)[C@H](O)[C@H]2O)[C@@H](O)[C@H](O)[C@H]1O)[C@H]1CC[C@]2(C)[C@@H]1[C@H](O)C[C@@H]1[C@@]3(C)C[C@@H](O)[C@H](O[C@@H]4O[C@H](CO)[C@@H](O[C@@H]5O[C@H](CO)[C@@H](O)[C@H](O)[C@H]5O)[C@H](O)[C@H]4O)C(C)(C)[C@@H]3CC[C@]12C	Non-toxic	Non-toxic	Dose-dependent effect	197.2		
COc1ccc2ccc(=O)oc2c1CC=C(C)C [OSTHOLE]					16.8	187.3
CC(=O)OC[C@H]1O[C@@H](O[C@H]2[C@H](O[C@@](C)(CCC=C(C)C)[C@H]3CC[C@]4(C)[C@@H]3[C@H](O)C[C@@H]3[C@@]5(C)C[C@@H](O)[C@H](O[C@@H]6O[C@H](CO)[C@@H](O)[C@H](O)[C@H]6O)C(C)(C)[C@@H]5CC[C@]34C)O[C@H](CO)[C@@H](O)[C@@H]2O)[C@H](O)[C@@H](O)[C@@H]1O			Dose-dependent effect			157.2
